Source: PubChem BioAssay (NCI)
“And” between values parts separate entries of the source, which are not always exact repeats. Equal values may be shown once.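 Where inhibition never reached the appropriate level, the endpoint shown equals the highest concentration tested. Otherwise, values were interpolated linearly from a five-concentration, 48-hour dose response in 96-well plates. Here, GI50 denotes the concentration required for 50% inhibition of growth. TGI is the concentration that stops growth completely.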

Assays:
Assay in all cases: inhibition of tumour cell growth, NCI panel, 48 h
COLO 205 colon = system: COLO 205 colon
HCT-116 colon = system: HCT-116 colon
K-562 leukemia = system: K-562 leukemia
KM12 colon = system: KM12 colon
LOX IMVI melanoma = system: LOX IMVI melanoma
MALME-3M melanoma = system: MALME-3M melanoma
MDA-MB-231 breast = system: MDA-MB-231 breast
OVCAR-8 ovarian = system: OVCAR-8 ovarian
RPMI-8226 leukemia = system: RPMI-8226 leukemia
SF-539 CNS = system: SF-539 CNS

Compound	TGI (COLO 205 colon)	TGI (HCT-116 colon)	TGI (K-562 leukemia)	TGI (KM12 colon)	TGI (LOX IMVI melanoma)	TGI (MALME-3M melanoma)	TGI (MDA-MB-231 breast) [µM]	TGI (OVCAR-8 ovarian)	TGI (RPMI-8226 leukemia) [µM]	TGI (SF-539 CNS) [µM]	GI50 (COLO 205 colon) [µM]	GI50 (HCT-116 colon) [µM]	GI50 (K-562 leukemia) [µM]	GI50 (KM12 colon) [µM]	GI50 (LOX IMVI melanoma) [µM]	GI50 (MALME-3M melanoma) [µM]	GI50 (OVCAR-8 ovarian) [µM]	GI50 (SF-539 CNS) [µM]
Clc1cc(OC2C3CC4CC(C3)CC2C4)nc(Cl)n1 (centres undefined)	34.2 µM	27.5 µM	24.1 µM	39.1 µM	14.4 µM	30.1 µM	27.5	61.6 µM	43	38.8								
Nc1cccc2cc(Cl)cnc12	> 100 µM	> 100 µM	> 100 µM	> 100 µM	> 100 µM	> 100 µM	> 100	> 100 µM	> 100	> 100								
CNC(=O)OCC1=C(COC(=O)NC)C(C)N(c2ccc(OC)cc2)C1 (centres undefined)	> 100 µM	> 100 µM	> 100 µM	> 100 µM	> 100 µM	> 100 µM	> 100	> 100 µM	> 100	> 100								
O=C(Cc1cccs1)N[C@@H]1C(=O)N2C(C(=O)OC(c3ccccc3)c3ccccc3)=C(CO)CS[C@H]12	> 100 µM	> 100 µM	> 100 µM	> 100 µM	> 100 µM	> 100 µM	> 100	> 100 µM	> 100	> 100								
NC(=O)C(c1ccccc1)N1OC2C(=O)N(c3ccccc3)C(=O)C2C1c1c2ccccc2c(Cl)c2ccccc12 (centres undefined)	> 100 µM	> 100 µM	> 100 µM	> 100 µM	> 100 µM	> 100 µM	> 100	> 100 µM	> 100	> 100								
CN1CCN([C@H]2C[C@H]3[C@@H]4CC=C5C[C@@H](O)CC[C@]5(C)[C@H]4CC[C@]3(C)C2=O)CC1	> 100 µM	> 100 µM	> 100 µM	> 100 µM	> 100 µM	> 100 µM	> 100	> 100 µM	> 100	> 100								
O=C(NNC(=O)c1ccccc1SSc1ccccc1C(=O)NNC(=O)c1ccccc1S)c1ccccc1S	> 100 µM	> 65.1 µM	> 100 µM	> 100 µM	> 100 µM	> 81.2 µM	> 74.6	> 100 µM	> 100	> 53.9								
O=C(O)CN(CC(=O)O)C1CCCCC1N(CC(=O)O)CC(=O)NCCN=C=S (centres undefined)		> 100 µM	> 100 µM	> 100 µM	> 100 µM	> 100 µM	> 100	> 100 µM	> 100	> 100								
Oc1cc2c3c(c1)c1cc4c(cc1c[n+]3CC2)OCO4	> 40.6 µM	> 40.5 µM	> 100 µM	13.9 µM	18.4 µM	7.85 µM	29.9	14.1 µM	6.46	> 100								
C=C1c2nc3ccccc3n2C=C(c2ccccc2)N1c1ccc([N+](=O)[O-])cc1	48.4 µM	35.2 µM	58.2 µM	13.8 µM	> 100 µM	25.9 µM	14.2	43.4 µM	> 55.7	3.04								
Cc1cccc(/C=N/NC(=S)Nc2ccccc2)n1			> 100 µM	> 100 µM	21.4 µM	64.2 µM	> 26.1	8.92 µM	75.6	10.4								
O=C1C(=Cc2ccc(O)cc2)N=C(c2ccccc2)N1n1c(-c2ccccc2)nc2ccccc2c1=O	> 100 µM	> 100 µM		> 100 µM	> 100 µM	> 100 µM	> 100	> 100 µM	> 100	> 100								
O=[N+]([O-])/C(C(Cl)=C(Cl)Cl)=C(\SCc1ccccc1)N1CCCCC1	34.8 µM	31.3 µM	> 100 µM	87.1 µM	35 µM	27.1 µM	37.3	54.5 µM	92.9	46								
N=c1n(C(=O)N2CCCC2)c2cc(Cl)ccc2n1C1=NCCN1	> 100 µM	> 100 µM	> 100 µM	> 100 µM	> 100 µM	> 100 µM	> 100	> 100 µM	> 100	> 100								
Cc1c2cnccc2c(C)c2c1c1ccccc1n2CCCN	0.986 µM and 0.629 µM	0.609 µM and 0.628 µM	0.794 µM and 0.598 µM	0.815 µM and 0.286 µM	0.402 µM and 0.569 µM	2.09 µM and 1.08 µM	0.439	1.41 µM and 1.22 µM	0.671	1.35	0.18	0.121	0.0402	0.0374	0.163	0.313	0.205	0.317
C(/c1ccco1)=c1/nc(-c2ccccc2)n2c1nc1ccccc12	> 100 µM	71.1 µM	68.3 µM	> 100 µM	> 100 µM	> 100 µM	> 100	> 100 µM	44.4	> 100								

Compound	TGI (COLO 205 colon)	TGI (HCT-116 colon)	TGI (K-562 leukemia)	TGI (KM12 colon)	TGI (LOX IMVI melanoma)	TGI (MALME-3M melanoma)	TGI (MDA-MB-231 breast) [µM]	TGI (OVCAR-8 ovarian)	TGI (RPMI-8226 leukemia) [µM]	TGI (SF-539 CNS) [µM]	GI50 (COLO 205 colon) [µM]	GI50 (HCT-116 colon) [µM]	GI50 (K-562 leukemia) [µM]	GI50 (KM12 colon) [µM]	GI50 (LOX IMVI melanoma) [µM]	GI50 (MALME-3M melanoma) [µM]	GI50 (OVCAR-8 ovarian) [µM]	GI50 (SF-539 CNS) [µM]
CC(C)/C(Cl)=N\OC(=O)Nc1ccc(S(N)(=O)=O)cc1	3.92 µM	27.7 µM	5.52 µM	33.3 µM	7 µM	10.1 µM	25.9	32 µM	4.97	31.5								
CCOC(=O)N1CCC2(CC1)C[C@](C)(C(C)=O)C(C)O2 (some centres undefined)	> 100 µM		> 100 µM	> 100 µM	> 100 µM	> 100 µM	> 100	> 100 µM	> 100	> 100								
CC[C@@]1(O)C(=O)OCc2c1cc1n(c2=O)Cc2c-1nc1ccccc1c2/C=N\NC(=O)CN	> 100 µM	16.1 µM	> 100 µM	> 100 µM	1.36 µM	> 91.6 µM	> 100	> 95.5 µM	18.8	0.127								
COC(=O)c1cc2c(n1S(=O)(=O)c1ccc(C)cc1)C(=O)C(=O)c1[nH]cc(C(=O)OCc3ccccc3)c1-2	0.433 µM	0.247 µM	> 100 µM	0.563 µM	0.176 µM	0.115 µM	0.168	0.706 µM	0.515	0.311								
COc1cc(/C=C/C(=N\NS(=O)(=O)c2ccc(C)cc2)c2sc(NNC(C)=O)nc2C)ccc1O	> 100 µM	> 100 µM		> 100 µM	> 100 µM	> 100 µM	> 100	> 100 µM	> 100	> 100								
O=c1[nH][nH]c(=O)n1Cc1ccccc1Cn1c(=O)[nH][nH]c1=O	> 100 µM	> 100 µM	> 100 µM	> 100 µM	> 100 µM	> 100 µM	> 100	> 100 µM	> 100	> 100								
CC(C)c1ccc(/C=C2/C=C(c3ccc4ccccc4c3)OC2=O)cc1	76.1 µM	> 100 µM	> 85.3 µM	> 100 µM	> 100 µM	33.4 µM	> 100	> 100 µM	93.7	> 100								
Clc1ccc(/C=C/c2nc3ccccc3s2)cc1Cl	> 100 µM	63.8 µM	> 100 µM	> 100 µM	3.12 µM	> 100 µM	> 100	> 100 µM	> 100	> 100								
COc1c(C)c(C/C=C(\C)CCCCO[Si](c2ccccc2)(c2ccccc2)C(C)(C)C)c(OC)c(OC)c1OC	39.9 µM	> 46.4 µM	> 46.4 µM	26.4 µM	58.3 µM	> 100 µM	> 100	35.6 µM	> 46.4	> 46.4								
CC(C)CC(=O)OC[n+]1ccc(-c2c(COC(=O)NC(C)C)c(COC(=O)NC(C)C)c3n2CCC3)cc1	> 100 µM	> 100 µM	> 100 µM	> 100 µM	> 100 µM	> 100 µM	> 100	> 100 µM	> 100	> 100								
COc1ccc(C(OCC2OC(n3cc(C)c(=O)[nH]c3=O)CC2n2cc(Cn3cc(I)c(=O)[nH]c3=O)nn2)(c2ccccc2)c2ccccc2)cc1 (centres undefined)	> 100 µM	> 100 µM		> 100 µM	> 100 µM	> 100 µM	> 100	> 100 µM	> 100	> 100								
O=C1/C(=C/c2ccc(O)cc2)CC/C1=C\c1ccc(O)cc1	> 100 µM	> 100 µM	> 100 µM	> 100 µM	> 100 µM	> 100 µM	> 100	> 100 µM	> 100	> 100								
CC1(C)N=C(/C(Cl)=[N+](/[O-])C(=O)c2ccc(F)cc2)C(C)(C)N1O	38.2 µM	30.6 µM	17.3 µM	67.8 µM	24.3 µM	30.8 µM	33.6	33.9 µM	38.1	40.1								
COc1ccc(C2c3cc4c(cc3OC(NNS(=O)(=O)c3ccc(C)cc3)C2C)OCO4)cc1 (centres undefined)	> 100 µM	> 100 µM	> 100 µM	> 100 µM	> 100 µM	> 100 µM	> 100	> 100 µM	> 100	> 100								
N#CC1=C(N)N(c2ccccc2)C(c2ccco2)C1(C#N)C#N (centres undefined)	39.2 µM	> 100 µM	37.5 µM	37.2 µM	31.1 µM	52.8 µM	35.1	51.8 µM	45.5	41.2								
Cc1ccc(SCC(CSCCO)OCn2cnc3c2NC(N)=NC32OCCO2)cc1 (centres undefined)		> 100 µM	> 100 µM		> 100 µM	> 100 µM	> 100	> 100 µM	> 100	> 100								
